According to patent US20250034413A1, “METHODS FOR DECELLULARIZING ANIMAL TISSUE AND BIOINKS DERIVED THEREFROM” (VIRGINIA COMMONWEALTH UNIVERSITY, priority 2021, published 2025):
“Also recorded” adds a separate entry of the source.

Legend:
[1] = tested on: AGEs in decellularized muscle matrix (DMM); assay: Reduction of AGEs in decellularized mouse gastrocnemius muscle matrix (DMM); type: biochemical; settings: C57BL6 mouse gastrocnemius, 2-month vs 20-month; 10 mM ALT-711, 37° C., 5 days; FIG. 3
Procedure: • i. Gastrocnemius is thawed in a 37° C. water bath and then butterflied. • ii. The muscles are washed in a T-25 flask (standing vertical) with 20 ml of deionized water per well 3 times for 10 minutes each. • iii. Tissue is then treated with 20 ml of 0.25% Trypsin for 12-16 hours in a T-25 flask (standing vertical) on an orbital shaker plate. Use tape to secure the flask in a vertical position. • iv. Trypsin treatment is followed by 3 20 ml 15 minute deionized water washes per well. • v. Tissue is treated with 20 mL of 0.1% TRITON X-100™ in a T-25 flask for 8 hours at 4° C. The volume is replaced with fresh TRITON X-100™ and the tissue is treated for another 16 hours. Treatment is followed by 3 20 ml 15 minute deionized water washes per well. • vi. Samples are placed in 20 mL of 60 mM sodium deoxycholate with 0.6 mM SB-16 for 8 hours in a T-25 flask at 4° C. The volume is replaced with fresh sodium deoxycholate and SB-16 and the tissue is treated for another 16 hours. • vii. Samples are washed as described in deionized water and placed in 20 mL of 70 mM CHAPS for 8 hours in a T-25 mL flask at 4° C. The volume is replaced with fresh CHAPS and the tissue is treated for another 16 hours. • viii. […]

AGEs in human DMM = assay: Reduction of AGEs in human decellularized muscle matrix (DMM) from MTF Biologics; type: biochemical; settings: older human samples, 10 mM ALT-711, 37° C., 5 days
Procedure: Exemplary method for reducing AGEs in decellularized muscle xi. 10 mM ALT-711 is added to each well, and then placed in the 37° C. incubator for 5 days.
xii. After 5 days, the samples are washed 3 times with diH20 each, and then the samples are frozen at −80° C.
In addition, human decellularized muscle from MTF Biologics was also tested for feasibility to reduce AGEs in older human samples using the same protocol as described above.

## Cc1sc[n+](CC(=O)c2ccccc2)c1C.[Cl-] [ALT-711, alargebrium chloride 711]
[1]
  level of AGEs in decellularized muscle matrix (DMM): reduced levels of AGEs; also recorded: reduces the higher level of AGEs seen in the 20-month decellularized muscle matrix (DMM) to young adult levels
AGEs in human DMM; FIG. 4A
  AGEs normalized to protein: reduced AGEs
AGEs in human DMM; FIG. 4B
  AGEs normalized to hydroxyproline: reduced AGEs
